These results are taken from ChEMBL document CHEMBL1155321, “Dopamine D3 receptor antagonists: the quest for a potentially selective PET ligand. Part 3: Radiosynthesis and in vivo studies” (Bioorg Med Chem Lett, 2009).

The CLint scaled is a measure of how fast metabolising enzymes remove a compound, apart from limits set by blood flow.

Data set [1] can be described thus: Intrinsic clearance in rat liver microsomes. Type of data set: ADME, Microsome. In general terms: Liver microsomes are a subcellular fraction often used to study metabolism.
Data set [2] in a line: Intrinsic clearance in human liver microsomes. The format is ADME, Microsome.

Consider `O=C1N(CCN2Cc3ccccc3C2)CCN1c1cccc(Cl)c1`, for which the CLint scaled was 36.9 mL/min/kg in data set [1] and 8.9 mL/min/kg in data set [2].
